Assay results reported in the supplement of paper PMC4977894.
± gives the standard deviation of the averaged measurements.

Columns and labels:
[1] = test system: Homo sapiens (human subject panel, olfactory perception); test: perceived odor familiarity rating (rating 0-100); higher = more familiar
Summary of the method: (§1)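 Across ten visits of 100 stimuli, 55 healthy human subjects aged 18–50 sniffed 1 mL of each molecule in paraffin oil in randomized order, at both high and low concentrations. The six lowest performers were excluded. Whenever a subject reported smelling a stimulus, they rated it on a computerized slider that started at 50 and had to be moved, and positions were converted to a 0–100 scale. Each familiarity, intensity and pleasantness figure is a mean across subjects.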

[2] = test system: Homo sapiens (human subject panel, olfactory perception); test: perceived odor pleasantness rating (rating 0-100); higher = more pleasant
Summary of the method: as §1

[3] = test system: Homo sapiens (human subject panel, olfactory perception); test: perceived odor intensity rating (rating 0-100); higher = stronger perceived smell
Summary of the method: as §1

[4] = odor dilution in paraffin oil: 1/1,000
[5] = odor dilution in paraffin oil: 1/100,000
[6] = odor dilution in paraffin oil: 1/10,000,000
[7] = odor dilution in paraffin oil: 1/10

SMILES | perceived odor familiarity rating [1, 4] | perceived odor familiarity rating [1, 5] | perceived odor pleasantness rating [2, 4] | perceived odor pleasantness rating [2, 5] | perceived odor intensity rating [3, 4] | perceived odor intensity rating [3, 5] | perceived odor familiarity rating [1, 6] | perceived odor pleasantness rating [2, 6] | perceived odor intensity rating [3, 6] | perceived odor familiarity rating [1, 7] | perceived odor pleasantness rating [2, 7] | perceived odor intensity rating [3, 7]
CCO [ethanol] | 41.4 ± 31 | 34.1 ± 28 | 60.9 ± 23 | 49.6 ± 23 | 19.5 ± 28 | 14.2 ± 18 |  |  |  |  |  | 
CCOC(C)=O [ethyl acetate] | 44.2 ± 30 | 40 ± 32 | 45.2 ± 22 | 45.7 ± 29 | 40.3 ± 29 | 19.3 ± 24 |  |  |  |  |  | 
CCCC(=O)OCC [ethyl butyrate] | 65.6 ± 29 | 53.5 ± 30 | 61.1 ± 33 | 59.6 ± 26 | 77.8 ± 20 | 49.6 ± 32 |  |  |  |  |  | 
CCOC(=O)/C=C/c1ccccc1 [ethyl cinnamate] | 43.8 ± 29 | 43.3 ± 27 | 54.8 ± 26 | 63.1 ± 24 | 61.5 ± 29 | 55.2 ± 27 |  |  |  |  |  | 
CCCCCC(=O)OCC [ethyl hexanoate] | 69.4 ± 27 | 56.4 ± 29 | 78.6 ± 19 | 71.6 ± 16 | 73.9 ± 20 | 53.3 ± 28 |  |  |  |  |  | 
CCOC(=O)CC [ethyl propionate] | 50.7 ± 31 | 44.5 ± 34 | 39.9 ± 31 | 31.3 ± 30 | 75.7 ± 24 | 53.9 ± 32 |  |  |  |  |  | 
CCOC(=O)CC(C)O (configuration not stated) [ethyl-3-hydroxybutyrate] | 62 ± 31 | 37.4 ± 29 | 75.4 ± 18 | 42 ± 23 | 58.1 ± 32 | 38.3 ± 32 |  |  |  |  |  | 
CCCC(O)CC(=O)OCC (configuration not stated) [ethyl-3-hydroxyhexanoate] | 54.2 ± 28 | 40.1 ± 31 | 47.3 ± 27 | 54.4 ± 23 | 60.3 ± 24 | 25.1 ± 27 |  |  |  |  |  | 
CCc1ccccc1 [ethylbenzene] | 51.4 ± 30 | 37 ± 33 | 35.2 ± 25 | 50.4 ± 19 | 75.5 ± 22 | 23 ± 24 |  |  |  |  |  | 
C=CCc1ccc(O)c(OC)c1 [eugenol] | 73.6 ± 26 | 59.6 ± 32 | 67.6 ± 23 | 61.8 ± 25 | 74.6 ± 21 | 60.4 ± 26 |  |  |  |  |  | 
CCCCCCC1CCC(=O)O1 (configuration not stated) [gamma-decalactone] | 51.5 ± 32 | 46.4 ± 30 | 64.9 ± 27 | 61.4 ± 20 | 54 ± 28 | 33.2 ± 28 |  |  |  |  |  | 
CC1CCC(=O)O1 (configuration not stated) [gamma-valerolactone] | 38.9 ± 31 | 29.3 ± 28 | 51.4 ± 25 | 51.3 ± 22 | 26.9 ± 30 | 14.7 ± 20 |  |  |  |  |  | 
CC(C)=CCC/C(C)=C/CO [geraniol] | 51.8 ± 31 | 57 ± 30 | 59.2 ± 25 | 62.1 ± 27 | 71.8 ± 24 | 42.3 ± 30 |  |  |  |  |  | 
CC(=O)OC/C=C(\C)CCC=C(C)C [geranyl acetate] |  | 36.4 ± 31 |  | 54.4 ± 19 |  | 16.3 ± 19 | 38.7 ± 32 | 47.9 ± 25 | 20.4 ± 24 |  |  | 
OCC(O)CO [glycerol] | 31.8 ± 30 |  | 42.7 ± 25 |  | 26.8 ± 29 |  |  |  |  | 33.6 ± 28 | 48.1 ± 31 | 31.2 ± 33
CCCCCCCO [heptanol (replicate)] | 51.9 ± 33 | 39.9 ± 29 | 48.5 ± 29 | 58 ± 23 | 72.2 ± 24 | 29.7 ± 30 |  |  |  |  |  | 
CCCCCCCO [heptanol] | 50.3 ± 30 | 44.9 ± 31 | 52.7 ± 25 | 59.6 ± 23 | 62.7 ± 27 | 30.3 ± 28 |  |  |  |  |  | 
CCCCCCCOC(C)=O [heptyl acetate] | 42.6 ± 31 |  | 61.6 ± 22 |  | 37.1 ± 31 |  |  |  |  | 55.8 ± 34 | 53.4 ± 32 | 82.2 ± 18
CCCCCCO [hexanol] | 58.7 ± 28 | 42.7 ± 27 | 58.2 ± 27 | 49.4 ± 26 | 61.5 ± 29 | 26 ± 27 |  |  |  |  |  | 

SMILES | perceived odor familiarity rating [1, 4] | perceived odor familiarity rating [1, 5] | perceived odor pleasantness rating [2, 4] | perceived odor pleasantness rating [2, 5] | perceived odor intensity rating [3, 4] | perceived odor intensity rating [3, 5] | perceived odor familiarity rating [1, 6] | perceived odor pleasantness rating [2, 6] | perceived odor intensity rating [3, 6] | perceived odor familiarity rating [1, 7] | perceived odor pleasantness rating [2, 7] | perceived odor intensity rating [3, 7]
CCCCCCOC(C)=O [hexyl acetate] | 58.2 ± 30 | 29.9 ± 26 | 63.1 ± 24 | 53.7 ± 23 | 58 ± 30 | 12.7 ± 17 |  |  |  |  |  | 
CCCCCCOC(=O)CCC [hexyl butyrate] | 44.1 ± 30 | 35.8 ± 27 | 34.1 ± 25 | 43.9 ± 16 | 45.6 ± 34 | 19.4 ± 21 |  |  |  |  |  | 
CC(C)CCO [isoamyl alcohol] | 50.8 ± 33 | 25.9 ± 21 | 51 ± 33 | 39.2 ± 25 | 63.5 ± 32 | 23.4 ± 26 |  |  |  |  |  | 
CC(=O)OCC(C)C [isobutyl acetate] | 72.1 ± 24 | 39.2 ± 27 | 56 ± 28 | 50 ± 22 | 75.9 ± 22 | 33.5 ± 30 |  |  |  |  |  | 
CC=Cc1ccc(OC(C)=O)c(OC)c1 [isoeugenol acetate] | 58.8 ± 28 |  | 66.8 ± 25 |  | 46.1 ± 28 |  |  |  |  | 57.1 ± 31 | 58.3 ± 26 | 57.6 ± 30
CC(=O)OCCC(C)C [isopentyl acetate] | 55.5 ± 32 | 51 ± 35 | 59.3 ± 25 | 65.2 ± 23 | 58.3 ± 31 | 45.9 ± 30 |  |  |  |  |  | 
CC(=O)OC(C)C [isopropyl acetate (replicate)] | 46.2 ± 33 | 44.5 ± 32 | 41.3 ± 23 | 49.9 ± 25 | 49.4 ± 34 | 22.7 ± 22 |  |  |  |  |  | 
CC(=O)OC(C)C [isopropyl acetate] | 40.1 ± 30 | 47.6 ± 27 | 51.5 ± 21 | 50 ± 23 | 13.3 ± 20 | 20.2 ± 23 |  |  |  |  |  | 
CC(C)CC(=O)O [isovaleric acid] |  | 54.3 ± 33 |  | 12.9 ± 19 |  | 82 ± 20 | 48 ± 31 | 20.7 ± 22 | 58.5 ± 30 |  |  | 
CC1(C)C(=O)[C@@]2(C)CC[C@H]1C2 [l-fenchone] | 58.3 ± 31 | 33.1 ± 32 | 44.6 ± 28 | 49.3 ± 26 | 64.5 ± 31 | 9.45 ± 15 |  |  |  |  |  | 
C=CC1(C)CCC(C(C)(C)O)O1 (configuration not stated) [linalool oxide] | 42.8 ± 31 | 37 ± 28 | 46.5 ± 26 | 49.6 ± 19 | 44.4 ± 31 | 15.9 ± 19 |  |  |  |  |  | 
COc1cccc(C=O)c1 [m-Anisaldehyde] | 47.4 ± 29 | 41.3 ± 30 | 53 ± 24 | 54 ± 25 | 48.7 ± 31 | 12.2 ± 19 |  |  |  |  |  | 
CO [methanol] | 30.9 ± 25 |  | 42.7 ± 22 |  | 18 ± 24 |  |  |  |  | 37.9 ± 29 | 39.5 ± 23 | 35 ± 30
COC(=O)c1ccco1 [methyl 2-furoate] | 43.2 ± 29 | 39.5 ± 28 | 37.2 ± 24 | 48.7 ± 22 | 62.6 ± 25 | 33.8 ± 34 |  |  |  |  |  | 
COC(C)=O [methyl acetate] | 29.6 ± 31 |  | 36.4 ± 19 |  | 23.9 ± 29 |  |  |  |  | 57.2 ± 28 | 26.9 ± 20 | 66.2 ± 28
COC(=O)c1ccccc1 [methyl benzoate] |  | 35.1 ± 32 |  | 45.9 ± 23 |  | 36.1 ± 30 | 38 ± 32 | 47.8 ± 23 | 14.2 ± 22 |  |  | 
CCCCCC(=O)OC [methyl caproate] | 56.4 ± 31 | 36.3 ± 31 | 56.2 ± 29 | 51.8 ± 22 | 68.4 ± 26 | 30.5 ± 29 |  |  |  |  |  | 
C/C=C/c1ccc(OC)c(OC)c1 [methyl isoeugenol] | 48.2 ± 31 | 30.1 ± 24 | 58.8 ± 26 | 39.5 ± 23 | 37.9 ± 31 | 25.4 ± 35 |  |  |  |  |  | 
